What was measured:
Format in all cases: in vivo, rat
CCI-SN rats = assay: Paw pressure (Randall-Selitto) test in CCI-SN rats; conditions: 10 mg/kg i.p.
Description: Male Sprague-Dawley rats (Charles River Laboratories, L'Arbresle, France), weighing 150-200 g on arrival, were used. Animals were maintained under controlled environmental conditions (22±1° C., 60% relative humidity, 12 h/12 h light/dark cycle, food and water ad libitum) starting from reception in the laboratory, for at least 1 week before any intervention or treatment and thereafter, until euthanasia.
Rats were anaesthetized as above and the common sciatic nerve was exposed. Using a dissection microscope (2× magnification), four chromic catgut (5-0) ligations were tied loosely with about 1 mm spacing, proximally to the sciatic trifurcation (Bennett and Xie, 1988). Finally, the skin and muscle were sewed using silk sutures (4-0). In sham-operated animals, the same surgery was performed, but the nerve was not ligated.
Tapentadol (1, 3 and 10 mg/kg i.p.), reboxetine (10 mg/kg i.p.), morphine (1 and 3 mg/kg s.c.) or their vehicle (0.9% NaCl) were injected acutely 14 days after surgery, when allodynia/hyperalgesia reached a plateau in both CCI-SN and CCI-ION rats. Behavioral tests were performed at various times for up to 4 h after injection. In drug association procedure, reboxetine or saline was administered 15 min before morphine or saline.

[1] = tested on: mRNA encoding ATF3, IL-6 and BDNF; assay: Real time qRT-PCR of mRNA in DRG and lumbar spinal cord of CCI-SN rats; conditions: subchronic 10 mg/kg i.p. twice daily; ipsilateral L4-L6 DRG and dorsal quadrant of lumbar enlargement; 4 h after last injection
Description: (§1) Subchronic treatment consisted of twice daily injections of tapentadol (10 mg/kg, i.p. at 10:00 am and 6:00 pm) or saline for 4 days starting on the 15th day after nerve ligation in both CCI-ION and CCI-SN rats. Animals were further injected with tapentadol (10 mg/kg i.p.) or saline at 10:00 am the following day (19th day post-surgery), and assessment of allodynia with von Frey filament tests (see below) was made at various times up to 4 hours after this injection. All rats were killed by decapitation 4 hours after the last injection for real-time qRT-PCR determinations of specific mRNAs in ganglia and central tissues (see below).
(§2) Animals used for qRT-PCR procedure were decapitated immediately after performance of von Frey filament test four hours after the last injection of tapentadol or saline for subchronic treatment conditions (see above). […]
(§3) First-stranded cDNA synthesis (from 660 ng total RNA per 20 μl reaction mixture) was carried out using SuperScript™ III Reverse Transcriptase and random primers (250 ng per reaction), as recommended by the manufacturer (Invitrogen, Cergy Pontoise, France). […] Semi-quantitative determinations were made with reference to the reporter gene encoding glyceraldehyde 3-phosphate dehydrogenase (GaPDH; Rn99999916_sl). […] Specific mRNA levels were calculated after normalizing from GaDPH mRNA in each sample (Latrémolière et al., 2008). […]

[2] = tested on: mRNA encoding ATF3, IL-6 and BDNF; assay: Real time qRT-PCR of mRNA in trigeminal ganglion and Sp5c of CCI-ION rats; conditions: subchronic 10 mg/kg i.p. twice daily; ipsilateral trigeminal ganglion and Sp5c area; 4 h after last injection
Description: as §1, §2, §3

Question: For `CC[C@@H](c1cccc(O)c1)[C@@H](C)CN(C)C` [Tapentadol, (−)-(1R,2R)-3-(3-dimethylamino-1-ethyl-2-methyl-propyl)-phenol], which “duration of increase in pressure threshold values” (CCI-SN rats) is on record?
Answer: at least 60 min

Question: And the “pressure threshold values to trigger vocalization, vs untreated healthy rats” value (CCI-SN rats; first 45 min after administration)?
Answer: +20%

Question: What about the “pressure threshold values to cause hindpaw withdrawal” value (CCI-SN rats; first hour after treatment, vs intact healthy rats) of the same compound?
Answer: did not significantly differ from those determined in intact healthy rats

Question: And the “levels of mRNA encoding ATF3, IL-6 and BDNF, tapentadol vs saline” value [1]?
Answer: not significantly different

Question: What about the “ATF3, IL-6 and BDNF mRNA levels” value [2] of the same compound?
Answer: had no significant effects

From patent US10813891B2, “Method of inhibiting chronification of pain” (priority 2011, dated 2020)
